The results in this text go back to patent US20110245316A1, “PREVENTION OR DELAY OF ONSET OF ORAL MUCOSITIS” (SCICLONE PHARMACEUTICALS, INC., priority 2010, published 2011).

The assay deals with cytokines and gene expression in CRT-treated HNC patients. The assay is described as follows: Cytokine and gene microarray analyses of patient samples. Type of assay: in vivo, human. As to the method: SCV-07 efficacy, dosing and scheduling parameters were assessed in hamster models of acute, fractionated and concomitant chemoradiation (CRT). […] A multicenter, prospective, blinded, randomized trial evaluated SCV-07's ability to alter OM in CRT-treated HNC patients (n=57). Cytokine and gene microarray analyses were performed for samples obtained before and on the last radiation day.

Setting [1] is: persons who clinically responded to SCV-07.

For the compound `N[C@H](CCC(=O)N[C@@H](Cc1c[nH]c2ccccc12)C(=O)O)C(=O)O` [SCV-07, γ-D-glutamyl-L-tryptophan], for the setting “SCV-07-treated patients”, the ICAM result was “Increases”, the IL-1alpha result is “Decreases”, the IL-5 entry is reported as “Decreases” and the IL-12 entry is recorded as “Increases”. Moreover, under “SCV-07-treated patients”, the IL-15 result is reported as “Decreases”, the MIF entry is reported as “Increases”, the MIP-1beta entry is on record as “Increases” and the MIP-3 alpha result is on record as “Decreases”. For the same compound, under “SCV-07-treated patients”, the Pro-inflammatory cytokine levels entry was “reduced”, the TNF-alpha entry is reported as “Decreases”, the VCAM result was “Increases” and the macrophage-associated cytokines result is “Elevated”. Moreover, for the setting “SCV-07 vs placebo patients”, the “Gene expression (microarray)” value was “Gene expression differences were noted”. Under setting [1], the IL-21 entry is listed as “increases”, the MIF result is given as “increases” and the VEGF entry is “decrease”.
